Laboratory results reported in patent US10633383B2, “Compounds for the treatment, alleviation or prevention of disorders associated with Tau aggregates” (AC Immune SA, priority 2018, dated 2020).

Legend:
[1] = target: T1, Tau K18 fragment (amino acids 244 to 372 of human Tau441) aggregates (Homo sapiens, UniProt P10636); test: Tau K18 disaggregation assay by ThT; type: biochemical; details: 2 μM K18 aggregates, 30 minutes at RT, ThT fluorescence
T1 construct: encompassing amino acids 244 to 372 of the longest isoform (2N4R) of human Tau441; host or cells: bacteria

[2] = test system: human neuroblastoma cell line overexpressing the full-length form of human Tau carrying the P301L mutation; test: Reduction of intracellular Tau aggregation (AlphaLISA); type: cell-based; details: compound at 5 μM, 24 h, aggregated Tau normalized to total Tau, relative to DMSO-treated cells
Experimental: Reduction of Intracellular Tau Aggregation
A human neuroblastoma cell line overexpressing the full-length form of human Tau carrying the P301L mutation was cultured in complete medium [DMEM-F12 4.5 g/L Glutamax (Invitrogen), 15% FBS (Biochrom), 1% Peni/Strep (Invitrogen) supplemented with 2.5 μg/ml of G418 (Sigma-Aldrich) selection antibiotic]. The day before the experiment 5×10^5 cells/well were plated in a 6 well plate in 3 mL of complete medium. The next day, cells were incubated with DMSO or a compound of the present invention at a 5 μM for additional 24 h at 37° C. After incubation, cells were trypsinized, resuspended in 100 μl of homogenization buffer [25 mM Tris-HCl pH 7.4, 150 mM NaCl, 1 mM EDTA, 1 mM EGTA containing phosphatase inhibitors (30 mM NaF, 0.2 mM Na3VO4, 1 nM Okadaic acid, 1 mM PMSF, 5 mM Na4P2O7) and protease inhibitor cocktail (Complete™, Roche)], and then physically lysed with three rapid cycles of freezing and thawing. Samples were then directly tested in the AlphaLISA assay. Phosphorylated, aggregated, and total Tau were quantified by AlphaLisa using the following antibody pairs: • HT7-Acceptor beads+biotin (BT)-Tau13-Donor beads: Total Tau • HT7-Acceptor beads+biotin (BT)-HT7-Donor beads: Aggregated human Tau
The Tau13 (Abcam) was biotinylated using EZ-Link® NHS-PEO Solid Phase biotinylation kit (Thermo Scientific), while the HT7-biotin was from a commercial source (Thermo Scientific).
For each antibody pairs the concentration of acceptor beads and biotinylated antibodies was optimized. All samples were first tested in a dilution series in PBS in order to identify the linear range and optimal dilution for each sample and assay. For the final protocol, the following reagents were added in a 384-well white OptiPlate (PerkinElmer): • 5 μL of test diluted sample • 20 μL of the mixture biotin-mAb acceptor beads at the following final concentrations: • HT7-BT at 1.25 nM in combination with HT7-Acc beads at 10 μg/ml • Tau13-BT at 5 nM in combination with HT7-Acc beads at 2.5 μg/ml
After incubation of this mixture at room temperature for 1 h, 25 μL of Streptavidin Donor beads (Perkin Elmer) at 25 μg/mL were added in the dark. Plates were analyzed after 30 min incubation using the EnSpire Alpha instrument and EnSpire Workstation version 3.00. Data for aggregated Tau were normalized to total Tau and then expressed as percentage of the DMSO-treated cells.

T1 sequence (P10636 561-689): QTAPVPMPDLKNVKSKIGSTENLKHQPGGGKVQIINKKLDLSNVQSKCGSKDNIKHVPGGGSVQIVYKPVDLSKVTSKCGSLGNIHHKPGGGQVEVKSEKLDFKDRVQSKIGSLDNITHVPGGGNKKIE

- EC50 [1]: < 10 µM
Structure (SMILES): Fc1ccc2[nH]c3c(c2c1)CN(c1ccc2nc(N4CCOCC4)oc2c1)CC3 [Example 12]
- inhibition at 5 µM [2]: 25 to 50%
